In publication PMC7719162, “Positioning of an unprecedented spiro[5.5]undeca ring system into kinase inhibitor space” (Scientific Reports, 2020):
Read-outs that look alike come from different tables or passages of the source.

Assays:
[1] = target: T1, AMPK(A2/B2/G3) (Homo sapiens, UniProt O43741+P54646+Q9UGI9); test: Kinase panel assay (radiolabelled); type: biochemical; conditions: 30 μM compound, ATP 10 μM; duplicates Data 1/Data 2; read-out: % Enzyme Activity (relative to DMSO controls)
T1 construct: purchased Reaction Biology Corp

[2] = target: T2, AMPK(A2/B2/G3) (Homo sapiens, UniProt P54646); test: Kinase panel assay (radiolabelled); type: biochemical; conditions: 30 μM compound, ATP 10 μM; duplicates Data 1/Data 2
T2 construct: purchased Reaction Biology Corp

[3] = target: T3, EIF2AK3 (Homo sapiens, UniProt Q9NZJ5); test: Kinase panel assay (radiolabelled); type: biochemical; conditions: 30 μM compound, ATP 10 μM, duplicates Data 1/Data 2
T3 construct: purchased Reaction Biology Corp

[4] = target: T4, EIF2AK4 (Homo sapiens, UniProt Q9P2K8); test: Kinase panel assay (radiolabelled); type: biochemical; conditions: 30 μM compound, ATP 10 μM, duplicates Data 1/Data 2
T4 construct: purchased Reaction Biology Corp

[5] = target: T5, JNK3 (Homo sapiens, UniProt P53779); test: Kinase panel assay (radiolabelled); type: biochemical; conditions: ATP 10 μM
T5 construct: purchased Reaction Biology Corp
T5 sequence (P53779 whole entry): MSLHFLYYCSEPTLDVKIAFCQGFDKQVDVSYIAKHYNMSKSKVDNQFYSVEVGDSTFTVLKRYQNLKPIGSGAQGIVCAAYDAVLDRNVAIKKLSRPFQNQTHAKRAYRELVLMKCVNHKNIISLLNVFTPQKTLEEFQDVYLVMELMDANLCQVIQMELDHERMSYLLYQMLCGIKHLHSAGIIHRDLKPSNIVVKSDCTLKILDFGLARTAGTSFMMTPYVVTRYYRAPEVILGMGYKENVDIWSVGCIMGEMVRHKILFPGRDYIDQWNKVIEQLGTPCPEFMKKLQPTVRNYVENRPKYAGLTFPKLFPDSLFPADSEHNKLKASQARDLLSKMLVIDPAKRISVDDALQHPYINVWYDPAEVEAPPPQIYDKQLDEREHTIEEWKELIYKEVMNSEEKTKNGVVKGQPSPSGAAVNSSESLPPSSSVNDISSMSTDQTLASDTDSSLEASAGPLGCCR

[6] = target: T6, PKCa (Homo sapiens, UniProt P17252); test: Kinase panel assay (radiolabelled); type: biochemical; conditions: ATP 10 μM
T6 construct: purchased Reaction Biology Corp

[7] = target: T7, ROCK2 (Homo sapiens, UniProt O75116); test: Kinase panel assay (radiolabelled); type: biochemical; conditions: ATP 10 μM
T7 construct: purchased Reaction Biology Corp
T7 sequence (O75116 whole entry): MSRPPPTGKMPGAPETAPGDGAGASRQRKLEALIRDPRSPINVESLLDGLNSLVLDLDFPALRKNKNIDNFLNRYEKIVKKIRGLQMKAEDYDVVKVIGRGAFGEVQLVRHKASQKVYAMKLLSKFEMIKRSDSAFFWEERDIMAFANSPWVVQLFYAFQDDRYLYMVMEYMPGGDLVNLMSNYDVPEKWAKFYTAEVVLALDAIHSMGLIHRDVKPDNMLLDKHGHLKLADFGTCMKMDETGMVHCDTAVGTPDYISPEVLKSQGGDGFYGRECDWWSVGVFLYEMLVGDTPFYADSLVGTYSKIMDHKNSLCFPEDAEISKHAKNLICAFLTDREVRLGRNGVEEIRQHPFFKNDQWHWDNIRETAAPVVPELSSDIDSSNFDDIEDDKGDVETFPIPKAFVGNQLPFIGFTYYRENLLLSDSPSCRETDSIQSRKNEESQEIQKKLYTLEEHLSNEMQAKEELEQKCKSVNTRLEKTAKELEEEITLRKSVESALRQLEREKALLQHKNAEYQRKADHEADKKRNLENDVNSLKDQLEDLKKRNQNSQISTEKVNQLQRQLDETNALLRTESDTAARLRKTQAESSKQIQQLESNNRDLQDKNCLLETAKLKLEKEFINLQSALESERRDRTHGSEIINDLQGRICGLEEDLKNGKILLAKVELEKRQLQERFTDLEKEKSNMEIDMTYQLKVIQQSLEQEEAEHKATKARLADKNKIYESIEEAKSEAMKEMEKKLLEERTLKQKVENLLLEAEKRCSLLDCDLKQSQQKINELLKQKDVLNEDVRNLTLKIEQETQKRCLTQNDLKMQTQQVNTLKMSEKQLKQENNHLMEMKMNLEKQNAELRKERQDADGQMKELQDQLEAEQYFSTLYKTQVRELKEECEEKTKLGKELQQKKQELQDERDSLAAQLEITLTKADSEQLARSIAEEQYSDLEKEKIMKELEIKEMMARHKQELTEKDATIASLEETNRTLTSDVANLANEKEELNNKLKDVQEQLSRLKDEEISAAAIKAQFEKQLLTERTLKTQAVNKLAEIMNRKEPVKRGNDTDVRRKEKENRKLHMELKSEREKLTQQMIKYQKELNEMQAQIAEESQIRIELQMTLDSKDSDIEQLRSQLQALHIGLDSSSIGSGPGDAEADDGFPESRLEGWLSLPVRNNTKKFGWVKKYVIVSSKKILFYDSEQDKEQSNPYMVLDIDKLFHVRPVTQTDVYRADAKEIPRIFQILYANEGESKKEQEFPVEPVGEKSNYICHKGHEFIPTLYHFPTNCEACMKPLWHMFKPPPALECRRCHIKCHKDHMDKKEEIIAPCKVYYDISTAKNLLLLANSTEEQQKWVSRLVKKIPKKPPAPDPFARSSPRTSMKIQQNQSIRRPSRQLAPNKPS

[8] = target: T8, STK25/YSK1 (Homo sapiens, UniProt O00506); test: Kinase panel assay (radiolabelled); type: biochemical; conditions: ATP 10 μM
T8 construct: purchased Reaction Biology Corp
T8 sequence (O00506 whole entry): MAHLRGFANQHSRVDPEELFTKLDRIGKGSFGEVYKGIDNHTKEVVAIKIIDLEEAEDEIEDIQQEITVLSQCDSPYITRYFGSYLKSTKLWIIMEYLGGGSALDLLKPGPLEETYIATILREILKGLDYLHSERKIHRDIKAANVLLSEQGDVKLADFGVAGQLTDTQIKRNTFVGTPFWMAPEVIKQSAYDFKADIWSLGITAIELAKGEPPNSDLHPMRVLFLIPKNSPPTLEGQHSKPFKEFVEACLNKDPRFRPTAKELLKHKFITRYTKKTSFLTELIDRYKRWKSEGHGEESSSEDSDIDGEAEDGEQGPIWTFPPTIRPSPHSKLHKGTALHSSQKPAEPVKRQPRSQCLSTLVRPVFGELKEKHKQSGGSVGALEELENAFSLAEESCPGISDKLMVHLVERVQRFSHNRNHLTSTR

[9] = target: T9, TRKA (G667C) (Homo sapiens, UniProt P04629, G667C); test: Kinase panel assay (radiolabelled); type: biochemical; conditions: 30 μM compound, ATP 10 μM, duplicates Data 1/Data 2
T9 construct: purchased Reaction Biology Corp
T9 sequence (P04629 33-796 G667C): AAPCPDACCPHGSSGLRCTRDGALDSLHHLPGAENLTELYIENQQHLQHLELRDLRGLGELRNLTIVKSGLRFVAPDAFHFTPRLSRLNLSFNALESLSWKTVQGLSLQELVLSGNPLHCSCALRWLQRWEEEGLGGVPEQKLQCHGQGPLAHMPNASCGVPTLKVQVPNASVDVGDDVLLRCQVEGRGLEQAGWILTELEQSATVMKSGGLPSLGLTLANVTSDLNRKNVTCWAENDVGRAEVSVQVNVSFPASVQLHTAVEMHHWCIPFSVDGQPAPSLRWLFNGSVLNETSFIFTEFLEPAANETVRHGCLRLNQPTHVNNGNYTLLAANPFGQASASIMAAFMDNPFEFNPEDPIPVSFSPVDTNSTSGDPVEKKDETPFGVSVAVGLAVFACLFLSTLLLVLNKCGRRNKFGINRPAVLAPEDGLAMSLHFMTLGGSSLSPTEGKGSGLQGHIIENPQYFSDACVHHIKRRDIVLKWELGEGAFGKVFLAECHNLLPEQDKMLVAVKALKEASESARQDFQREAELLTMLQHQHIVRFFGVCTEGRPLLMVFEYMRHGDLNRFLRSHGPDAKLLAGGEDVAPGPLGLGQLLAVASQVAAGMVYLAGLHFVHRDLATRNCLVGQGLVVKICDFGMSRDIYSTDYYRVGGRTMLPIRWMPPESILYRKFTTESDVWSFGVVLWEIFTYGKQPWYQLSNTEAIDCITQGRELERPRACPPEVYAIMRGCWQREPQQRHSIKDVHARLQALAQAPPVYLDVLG

[10] = target: TRKA-TPM3 (Homo sapiens, UniProt P04629); test: Kinase panel assay (radiolabelled); type: biochemical; conditions: 30 μM compound, ATP 10 μM, duplicates Data 1/Data 2
TRKA-TPM3, sequence (P04629 399-796): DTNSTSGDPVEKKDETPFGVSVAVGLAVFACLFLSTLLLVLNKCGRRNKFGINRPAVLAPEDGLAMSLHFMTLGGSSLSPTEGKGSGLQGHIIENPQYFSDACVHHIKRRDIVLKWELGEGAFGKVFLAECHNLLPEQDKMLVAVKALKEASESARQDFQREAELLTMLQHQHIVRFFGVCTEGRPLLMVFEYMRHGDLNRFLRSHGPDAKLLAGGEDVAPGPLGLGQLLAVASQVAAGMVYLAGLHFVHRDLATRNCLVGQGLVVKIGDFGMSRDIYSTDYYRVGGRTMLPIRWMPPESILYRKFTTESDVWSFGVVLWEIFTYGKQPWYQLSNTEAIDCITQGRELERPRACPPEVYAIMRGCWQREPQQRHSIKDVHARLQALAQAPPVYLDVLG
TRKA-TPM3, sequence (P06753 2-258 partner): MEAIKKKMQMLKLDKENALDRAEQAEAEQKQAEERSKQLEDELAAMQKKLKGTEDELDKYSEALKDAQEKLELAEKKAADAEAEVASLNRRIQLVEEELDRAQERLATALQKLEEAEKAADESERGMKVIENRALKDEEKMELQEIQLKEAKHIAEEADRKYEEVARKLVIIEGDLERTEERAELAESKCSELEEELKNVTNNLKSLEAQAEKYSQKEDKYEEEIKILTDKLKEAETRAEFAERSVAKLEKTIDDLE

[11] = target: T10, SPHK1 (Homo sapiens, UniProt Q9NYA1); test: Kinase panel assay (lipid kinase); type: biochemical; conditions: 30 μM compound, ATP 10 μM, duplicates Data 1/Data 2
T10 construct: purchased Reaction Biology Corp
T10 sequence (Q9NYA1 whole entry): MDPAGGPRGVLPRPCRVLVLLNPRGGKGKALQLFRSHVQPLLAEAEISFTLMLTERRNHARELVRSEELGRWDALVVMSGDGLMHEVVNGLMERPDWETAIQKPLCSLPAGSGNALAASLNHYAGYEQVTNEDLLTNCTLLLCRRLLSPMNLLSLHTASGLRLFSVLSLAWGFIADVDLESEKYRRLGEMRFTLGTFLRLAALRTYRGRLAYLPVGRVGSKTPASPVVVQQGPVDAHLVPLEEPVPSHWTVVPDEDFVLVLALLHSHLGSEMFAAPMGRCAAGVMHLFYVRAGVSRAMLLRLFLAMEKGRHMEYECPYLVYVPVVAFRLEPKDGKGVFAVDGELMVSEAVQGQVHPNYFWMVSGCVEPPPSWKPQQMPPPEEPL

[12] = target: T11, PI3K (p110a(H1047R)/p85a) (Homo sapiens, UniProt P42336, H1047R); test: Kinase panel assay (lipid kinase); type: biochemical; conditions: 30 μM compound, ATP 10 μM, duplicates Data 1/Data 2
T11 construct: purchased Reaction Biology Corp

[13] = MTT cell viability assay; type: cell-based, murine; conditions: mouse, BV-2 microglia cells (LPS-activated), mean ± SD
Method: (§1) 3-(4,5-dimethylthiazol-2-yl)-2,5-diphenyl-tetrazolium bromide (MTT) assay was performed to evaluate the cytotoxicity of the samples to the microglia. BV2 cells at the density of 4 × 10^4 cells /well were seeded in the 96 well plate and incubated for 24 h. Seeded cells were pre-treated with different concentration of the samples, and LPS (100 ng/ml) activation was performed after 30 min of compound treatment. Treated plate were incubated for 24 h in the incubator and nitric oxide assay and cell viability assay was performed. Treated cell’s conditioned medium was used to evaluate the NO assay, and the attached cells were used to evaluate the cell viability assay. 50 µL of conditioned medium (CM) from treated cells were transferred to a new 96 well plate for NO assay. This CM was mixed with the equal volume of the mixture of Gries reagent ((1% sulfanilamide and 0.1% N-1-napthylethylenediamine dihydrochloride). NaNO2 was used as standard and the colorimetric change were evidenced by measuring its OD at 540 nm in a microplate reader. The cells in the plate were incubated for 1 h with MTT solution making it the final concentration of […]. Blue stained cells were incubated with 200 ul of DMSO and the solution get changed to purple/formazan color and it was observed by measuring the absorbance at 570 nm in a microplate reader.NG-mono-methyl-L-arginine (L-NMMA), a well-known nitric oxide synthase (NOS) inhibitor, was used as a positive control.

[14] = test system: COX-2; test: Western blot of COX-2 in LPS-induced BV-2 cells; type: cell-based, murine; conditions: 0.01 to 1 uM
Method: Western blot analysis was performed to see the protein expression of the iNOS and COX-2 in the BV2 cells. BV2 cells were seeded in a 6 well plate at the density of 6 × 10^5 cells/well overnight and cells were treated as mentioned earlier in the cell treatment section and this time treatment was performed for 6 h only. After 6 h, cells were harvested and lysed with lysis buffer containing (RIPA, protease inhibitor & phosphatase inhibitor), protein estimation was performed using biorad assay and the 30 µg of total protein was separated by 8% SDS-PAGE gel electrophoresis, transferred to nitrocellulose membranes, and incubated with primary antibodies against tubulin, iNOS, COX-2, and α-tubulin. […] membranes were incubated with horseradish peroxidase-conjugated secondary antibodies, and protein bands were visualized using ECL Western Blotting Detection Reagents (Amersham Pharmacia Biotech). Quantitative analysis of the protein bands was quantified using Image Master 2D Elite software (version 3.1, Amersham Pharmacia Biotech).

[15] = test system: IL-1β; test: Secreted IL-1β ELISA in LPS-induced BV-2 cells; type: cell-based, murine
Method: To evaluate the secreted level of Prostaglandin E2 (PGE2), Tumor necrosis factor (TNF-α), Interleukin (IL-6), Interleukin (IL-1β), BV2 cells were seeded in a 6 well plate at the density of 1.5 × 10^6 cells/well in DMEM and incubated for 24 h. Seeded cells sere pretreated and, activated with LPS for next 24 h. conditioned medium from treated cells were collected and stored at -80 degree for longer period of time. The amount of TNF-α, IL-1β, PGE2,and IL-6 were evaluated using the competitive enzyme immunoassay kit. PGE2 kit were obtained from (Cayman Chemical, Ann Arbor, MI, USA) and TNF-α, IL-1β, and IL-6 were measured using ELISA development kits (R&D Systems, Minneapolis, MN, USA). All the protocol was exactly followed as written in the manual.

[16] = test system: BV-2 cells; test: MTT cell viability assay; type: cell-based, murine; conditions: 5 μM compound, % of LPS, mean ± SD
Method: as §1

[17] = target: T12, DAPK1 (Homo sapiens, UniProt P53355); conditions: cited from earlier work
T12 construct: purchased Reaction Biology Corp

[18] = target: T13, DAPK2 (Homo sapiens, UniProt Q9UIK4); conditions: cited from earlier work
T13 construct: purchased Reaction Biology Corp

[19] = target: T14, JNK2 (Homo sapiens, UniProt P45984); conditions: cited from earlier work
T14 construct: purchased Reaction Biology Corp

[20] = target: T6, PKCa; conditions: cited from earlier work
[21] = target: T15, TRKA (Homo sapiens, UniProt P04629); conditions: cited from earlier work
T15 construct: purchased Reaction Biology Corp
T15 sequence (P04629 33-796): as the sequence (P04629 33-796 G667C) above, with C635G counted along it

[22] = read-out: % Enzyme Activity (relative to DMSO controls)
[23] = 30 μM compound, duplicates Data 1/Data 2
[24] = 30 μM compound, duplicates Data 1/Data 2, read-out: % Enzyme Activity (relative to DMSO controls)
[25] = 30 μM, average ± SD, read-out: % Residual Activity at 30 μM

O=C1C=CC2(C=C1)OCC(Cc1cn(-c3cccc(Cl)c3)nn1)C(=O)N2c1ccccc1 (stereo not drawn) [2d, 3-((1-(3-Chlorophenyl)-1H-1,2,3-triazol-4-yl)methyl)-5-phenyl-1-oxa-5-azaspiro[5.5]undeca-7,10-diene-4,9-dione]
remaining activity at 30 µM [1]: 95.8%
% Enzyme Activity (relative to DMSO controls) [2]: 88.96%
% Enzyme Activity (relative to DMSO controls) [3]: 70.64%
remaining activity at 30 µM [3, 22]: 70.8%
% Enzyme Activity (relative to DMSO controls) [4]: 102.49%
remaining activity at 30 µM [4, 22]: 104%
% Enzyme Activity (relative to DMSO controls) [5, 23]: 95.42%
remaining activity at 30 µM [5, 24]: 95.5%
remaining activity at 30 µM [5, 25]: 95.4 ± 0.1%
% Enzyme Activity (relative to DMSO controls) [6, 23]: 62.24%
remaining activity at 30 µM [6, 24]: 63%
remaining activity at 30 µM [6, 25]: 62.6 ± 0.5%
% Enzyme Activity (relative to DMSO controls) [7, 23]: 98.38%
remaining activity at 30 µM [7, 24]: 100%
remaining activity at 30 µM [7, 25]: 99.4 ± 1.5%
% Enzyme Activity (relative to DMSO controls) [8, 23]: 61.07%
remaining activity at 30 µM [8, 24]: 63.3%
remaining activity at 30 µM [8, 25]: 62.2 ± 1.6%
% Enzyme Activity (relative to DMSO controls) [9]: 101.95%
remaining activity at 30 µM [9, 22]: 103%
% Enzyme Activity (relative to DMSO controls) [10]: 95.56%
remaining activity at 30 µM [10, 22]: 98.2%
% Enzyme Activity (relative to DMSO controls) [11]: 77.68%
remaining activity at 30 µM [11, 22]: 80.5%
% Enzyme Activity (relative to DMSO controls) [12]: 131.08%
remaining activity at 30 µM [12, 22]: 132%
viability at 24 h, 1 µM ([13]; 1 μM compound): 112 ± 19.8%
viability at 24 h, 5 µM ([13]; 5 μM compound, % of LPS): 90 ± 6%
COX-2 expression level [14]: the regulation of COX-2 showed concentration dependency
IL-1β level [15]: concentration-dependent manner

O=C1C=CC2(C=C1)OCC(Cc1cc(C(F)(F)F)cc(C(F)(F)F)c1)C(=O)N2c1ccccc1 (racemic) [1c]
Cell Viability (%) [16]: 92 ± 13%
% Residual Activity at 30 μM [17]: 45.4 ± 0.1%
% Residual Activity at 30 μM [18]: 120.1 ± 0.6%
% Residual Activity at 30 μM [19]: 58.3 ± 0.7%
% Residual Activity at 30 μM [20]: 45.6 ± 1.2%
% Residual Activity at 30 μM [21]: 98.3 ± 0.1%
